Legend:
Format in all cases: nucleic-acid assay
Details in all cases: Bos taurus
[1] = tested on: Calf thymus DNA; assay: Calf thymus DNA binding affinity compared to ethidium bromide
[2] = tested on: Nucleic Acid; assay: DNA binding affinity by a decrease in fluorescence of an ethidium bromide calf thymus DNA solution; (33%)
[3] = tested on: Nucleic Acid; assay: DNA binding affinity by a decrease in fluorescence of an ethidium bromide calf thymus DNA solution; (12%)
[4] = tested on: Nucleic Acid; assay: DNA binding affinity by a decrease in fluorescence of an ethidium bromide calf thymus DNA solution (0%)
[5] = tested on: Nucleic Acid; assay: DNA binding affinity by a decrease in fluorescence of an ethidium bromide calf thymus DNA solution; (25%)
[6] = tested on: Nucleic Acid; assay: DNA binding affinity by a decrease in fluorescence of an ethidium bromide calf thymus DNA solution; (10%)
[7] = tested on: Nucleic Acid; assay: DNA binding affinity by a decrease in fluorescence of an ethidium bromide calf thymus DNA solution; (41%)
[8] = tested on: Nucleic Acid; assay: DNA binding affinity by a decrease in fluorescence of an ethidium bromide calf thymus DNA solution; (39%)
[9] = tested on: Nucleic Acid; assay: DNA binding affinity by a decrease in fluorescence of an ethidium bromide calf thymus DNA solution; (36%)
[10] = tested on: Nucleic Acid; assay: DNA binding affinity by a decrease in fluorescence of an ethidium bromide calf thymus DNA solution; (34%)

SMILES | C50 [1] | further results
CN(C)CCCN1C(=O)c2cccc3cc([N+](=O)[O-])cc(c23)C1=O | 16 µM | –
O=C1c2cccc3cc([N+](=O)[O-])cc(c23)C(=O)N1CCN1CCCC1 | 10 µM | –
CN(C)CCN1C(=O)c2cccc3c([N+](=O)[O-])ccc(c23)C1=O | – | C50 [2]: > 100 µM
O=C1c2cccc3cccc(c23)C(=O)N1CCO | – | C50 [3]: > 100 µM
CN(C)CCN1C(=O)c2cccc3cc([N+](=O)[O-])cc(c23)C1=O | 11 µM | –
O=C1c2cccc3c([N+](=O)[O-])ccc(c23)C(=O)N1CCc1ccccn1 | – | C50 [4]: > 100 µM
O=C1c2cccc3cc([N+](=O)[O-])cc(c23)C(=O)N1CCO | – | C50 [5]: > 100 µM
CNCCN1C(=O)c2cccc3c([N+](=O)[O-])ccc(c23)C1=O | 19 µM | –
O=C1c2cccc3c([N+](=O)[O-])ccc(c23)C(=O)N1CCN1CCCC1 | 11 µM | –
CCN(CC)CCN1C(=O)c2cccc3c([N+](=O)[O-])ccc(c23)C1=O | 28 µM | –
O=C1c2cccc3cc([N+](=O)[O-])cc(c23)C(=O)N1CCc1ccccn1 | – | C50 [6]: > 100 µM
CNCCN1C(=O)c2cccc3cc([N+](=O)[O-])cc(c23)C1=O | 14 µM | –
CNCCN1C(=O)c2cccc3cccc(c23)C1=O | – | C50 [7]: > 100 µM
O=C1c2cccc3cc([N+](=O)[O-])cc(c23)C(=O)N1CCN1CCNCC1 | – | C50 [8]: > 100 µM
CN(C)CCCN1C(=O)c2cccc3c([N+](=O)[O-])ccc(c23)C1=O | – | C50 [9]: > 100 µM
CCN(CC)CCN1C(=O)c2cccc3cc([N+](=O)[O-])cc(c23)C1=O | 35 µM | –
O=C1c2cccc3c([N+](=O)[O-])ccc(c23)C(=O)N1CCO | – | C50 [10]: > 100 µM

Now from value to compound, other results behind:

C50 [1] | SMILES | further results
50 µM | NCCN1C(=O)c2cccc3cccc(c23)C1=O | –
100 µM | CCN(CC)CCN1C(=O)c2cccc3cccc(c23)C1=O | –
17 µM | NCCN1C(=O)c2cccc3c([N+](=O)[O-])ccc(c23)C1=O | –
100 µM | CN(C)CCN1C(=O)c2cccc3cccc(c23)C1=O | –

Source: ChEMBL document CHEMBL1127655, “The stabilization of DNA topoisomerase II cleavable complex by mitonafide analogs” (Bioorg Med Chem Lett, 1994)
